Target: Plasminogen activator inhibitor 1 (Homo sapiens, UniProt P05121)
Assay: Inhibition of human PAI1 using tissue type plasminogen activator substrate by chromogenic absorbance at 405 nm

Plasminogen activator inhibitor 1, sequence (P05121 whole entry): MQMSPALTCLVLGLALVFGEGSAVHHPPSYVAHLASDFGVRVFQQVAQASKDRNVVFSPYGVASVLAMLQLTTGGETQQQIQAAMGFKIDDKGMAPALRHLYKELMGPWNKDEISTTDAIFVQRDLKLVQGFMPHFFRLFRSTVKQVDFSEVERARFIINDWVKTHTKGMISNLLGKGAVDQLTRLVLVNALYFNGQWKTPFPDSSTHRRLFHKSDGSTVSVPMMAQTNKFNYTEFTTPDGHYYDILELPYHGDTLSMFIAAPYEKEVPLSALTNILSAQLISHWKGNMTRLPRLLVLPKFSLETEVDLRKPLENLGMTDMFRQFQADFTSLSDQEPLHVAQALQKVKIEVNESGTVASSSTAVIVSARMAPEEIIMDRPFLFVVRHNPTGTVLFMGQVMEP

Row | SMILES | IC50 [µM]
1 | CC(C)CC(=O)c1c(O)c(C=O)c2c(c1O)C[C@H]1C[C@H](C(C)C)C=C[C@@]1(C)O2 [EUGLOBAL IIC] | 700
2 | CC(C)C[C@@H]1c2c(O)c(C=O)c(O)c(C=O)c2O[C@@H](c2c(O)c(C=O)c(O)c(C=O)c2O)[C@H]1C(C)C [SIDEROXYLONAL B] | 5.3
3 | CC(C)C[C@H]1c2c(O)c(C=O)c(O)c(C=O)c2O[C@@H](c2c(O)c(C=O)c(O)c(C=O)c2O)[C@@H]1C(C)C [SIDEROXYLONAL C] | 4.7

More lines, now with the values ahead:

Row | IC50 [µM] | SMILES
4 | 138 | CC(C)C[C@@H]1c2c(O)c(C=O)c(O)c(C=O)c2O[C@]2(C)C=C[C@@H](C(C)C)C[C@H]12 [EUGLOBAL IA2]
5 | 152 | CC(C)C[C@@H]1C[C@@]2(CC[C@@H]3C[C@H]2C3(C)C)Oc2c(C=O)c(O)c(C=O)c(O)c21 [ROBUSTADIAL A]
6 | 3.3 | CC(C)C[C@@H]1c2c(O)c(C=O)c(O)c(C=O)c2O[C@@H](c2c(O)c(C=O)c(O)c(C=O)c2O)[C@@H]1C(C)C [SIDEROXYLONAL A]
